Reference: ChEMBL document CHEMBL1155003, “Halicyclamine A, a marine spongean alkaloid as a lead for anti-tuberculosis agent” (2008)
≈ marks a conversion by molar mass, not a printed value.

Assays:
Format in all cases: functional
Settings in all cases: 336 h
[1] = tested on: Mycobacterium tuberculosis; experiment: Antitubercular activity against ethambutol-resistant Mycobacterium tuberculosis H37Rv ATCC 35837 after 14 days
[2] = tested on: Mycobacterium tuberculosis; experiment: Antitubercular activity against isoniazid-resistant Mycobacterium tuberculosis H37Rv ATCC 35822 after 14 days
[3] = tested on: Mycobacterium tuberculosis; experiment: Antitubercular activity against rifampicin-resistant Mycobacterium tuberculosis H37Rv ATCC 35838 after 14 days
[4] = tested on: Mycobacterium tuberculosis; experiment: Antitubercular activity against streptomycin-resistant Mycobacterium tuberculosis H37Rv ATCC 35820 after 14 days

C1=C2CCCC/C=C\C=C\CCN3CC[C@@H]4[C@H](CCCCCC/C=C\C=C/CCN(C2)C[C@H]14)C3 [HALICYCLAMINE A]
MIC [1]: 3.13 µg/mL (≈ 6.76 µM)
MIC [2]: 3.13 µg/mL (≈ 6.76 µM)
MIC [3]: 3.13 µg/mL (≈ 6.76 µM)
MIC [4]: 6.25 µg/mL (≈ 13.5 µM)
